Consider 27 compounds from US20230091047A1 (priority 2019, published 2023).

For data set [1], the system named is HBV (HepG2.117 cell line, inducibly HBV producing). As to the kind of experiment: Anti-HBV activity: intracellular HBV DNA by real-time PCR in HepG2.117 cells after 3 days of treatment. In kind it is cell-based, hepatitis B virus. Put shortly:
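HepG2.117 cells replicate HBV under Tet-off control, without doxycycline. After induction of replication, cells were treated with serially diluted compound for 3 days, and intracellular HBV DNA was then quantified by real-time PCR with an HBV-specific primer set and probe.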

Data set [2] can be described thus: in vitro. Particulars: human, HepG2 or HepG2.117 cells, ATPlite, mean value. In kind it is cell-based. The method, boiled down:
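Luminescent ATP quantitation served as the viability endpoint following a 3- or 4-day incubation with test compounds.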

The mark [3] stands for this setting: Hepatitis B virus, HepG2.117, 72 h, HepG2.117 cells, 3 days of treatment, intracellular HBV DNA by real-time PCR; mean value; read-out: EC50 (μM, mean value).
The mark [4] stands for this setting: 3-days incubation (unmarked values).
The mark [5] stands for this setting: Hepatitis B virus, HepG2.117, 72 h, HepG2.117 cells, intracellular HBV DNA by real-time PCR, 3 days of treatment, mean value; read-out: EC50 (μM, mean value).
Setting [6] is: 3-days incubation (not marked with *).

Where two headings read alike, the source gives them in different places.

For the compound `CCCn1c(NCc2ccc(OC)cc2)nc2c(c1=O)CCN(C(=O)c1ccc(Cl)c(Cl)c1)C2` [Compound C71, 7-(3,4-dichlorobenzoyl)-2-{[(4-methoxyphenyl)methyl]amino}-3-propyl-5,6,7,8-tetrahydropyrido[3,4-d]pyrimidin-4(3H)-one], in data set [1] (setting [3]), the EC50 was found to be 7.04 µM. Further, in data set [2] (setting [4]), the half-maximal cytotoxic concentration (CC50) at 3 days was over 50 µM.
With `CNC(=O)c1ccc(-n2c(N3CCC[C@H]3C)nc3c(c2=O)C[C@@H](C)N(C(=O)c2ccc(Cl)c(Cl)c2)C3)cc1` [Compound C252, 4-[(6R)-7-(3,4-dichlorobenzoyl)-6-methyl-2-[(2R)-2-methylpyrrolidin-1-yl]-4-oxo-5,6,7,8-tetrahydropyrido[3,4-d]pyrimidin-3(4H)-yl]-N-methylbenzamide], the EC50 in data set [1] (setting [3]) is 0.04 µM. It took 25.9 µM to reach half-maximal cytotoxicity in data set [2] (setting [4]) (CC50 at 3 days).
As to `CNC(=O)c1ccc(-n2c(NCc3n[nH]c(=O)[nH]3)nc3c(c2=O)C[C@@H](C)N(C(=O)c2ccc(Cl)c(Cl)c2)C3)cc1` [Compound C600], the EC50 in data set [1] (setting [5]) was over 25 µM. The compound further registered a CC50 at 3 days in data set [2] (setting [6]) of over 50 µM.
For `CC(C)Nc1nc2c(c(=O)n1-c1ccc(S(C)(=O)=O)cc1)CCN(C(=O)c1ccc(Cl)c(C(C)C)c1)C2` [Compound C222, 7-[4-chloro-3-(propan-2-yl)benzoyl]-3-[4-(methanesulfonyl)phenyl]-2-[(propan-2-yl)amino]-5,6,7,8-tetrahydropyrido[3,4-d]pyrimidin-4(3H)-one], the 50% effective concentration (EC50) in data set [1] (setting [3]) came to 1.45 µM. This compound also registered a cytotoxic concentration (CC50) at 3 days in data set [2] (setting [4]) of over 50 µM.
Taken in the same sequence, the figures for `COc1ccccc1-n1c(N2CCCC2)nc2c(c1=O)CCN(C(=O)c1ccc(Cl)c(Cl)c1)C2` [Compound C39, 7-(3,4-dichlorobenzoyl)-3-(2-methoxyphenyl)-2-(pyrrolidin-1-yl)-5,6,7,8-tetrahydropyrido[3,4-d]pyrimidin-4(3H)-one] were 9.21 µM and over 50 µM.
With `CNC(=O)c1ccc(-n2c(NCc3ccn(-c4ccc(F)cc4)n3)nc3c(c2=O)C[C@@H](C)N(C(=O)c2ccc(Cl)c(Cl)c2)C3)cc1` [Compound C465], the 50% effective concentration (EC50) in data set [1] (setting [5]) amounted to 0.65 µM. This compound registered a 50% cytotoxic concentration (CC50) at 3 days in data set [2] (setting [6]) of 22.6 µM.
Taken in the same sequence, the figures for `CNC(=O)c1ccc(-n2c(N[C@H](C)c3ccc(OC(F)(F)F)cc3)nc3c(c2=O)C[C@@H](C)N(C(=O)c2ccc(Cl)c(Cl)c2)C3)cc1` (single isomer, unassigned) [Compound C440a] were 5.42 µM and 25 µM.
For `CNC(=O)c1ccc(-n2c(N[C@@H](C)c3ccc(F)c(OC)c3)nc3c(c2=O)C[C@@H](C)N(C(=O)c2ccc(Cl)c(Cl)c2)C3)cc1` (single isomer, unassigned) [Compound C435b], the EC50 in data set [1] (setting [5]) was determined as 1.29 µM. For the same compound, the half-maximal cytotoxic concentration (CC50) at 3 days in data set [2] (setting [6]) amounted to 45.8 µM.
Take `CC(C)Nc1nc2c(c(=O)n1-c1ccc(C(=O)N3CCN(C)CC3)cc1)C[C@@H](C)N(C(=O)c1ccc(Cl)c(Cl)c1)C2` [Compound C169, (6R)-7-(3,4-dichlorobenzoyl)-6-methyl-3-[4-(4-methylpiperazine-1-carbonyl)phenyl]-2-[(propan-2-yl)amino]-5,6,7,8-tetrahydropyrido[3,4-d]pyrimidin-4(3H)-one]: the EC50 in data set [1] (setting [3]) was found to be 0.15 µM. Moreover, the cytotoxic concentration (CC50) at 3 days in data set [2] (setting [4]) worked out at 30.7 µM.
As to `C[C@@H]1Cc2c(nc(N[C@H](C)c3ccc(OC(F)(F)F)cc3)n(-c3ccc(-n4cccn4)cc3)c2=O)CN1C(=O)c1ccc(Cl)c(Cl)c1` (single isomer, unassigned) [Compound C463a], the concentration giving a half-maximal response (EC50) in data set [1] (setting [5]) was 0.24 µM. Further, the CC50 at 3 days in data set [2] (setting [6]) is over 50 µM.
Taken in the same sequence, the figures for `CNC(=O)c1ccc(-n2c(NCc3nnn(C)c3C(F)F)nc3c(c2=O)C[C@@H](C)N(C(=O)c2ccc(Cl)c(Cl)c2)C3)cc1` [Compound C552] were over 25 µM and over 50 µM.
Consider `Cc1csc(-c2ccc(-n3c(NC(C)C)nc4c(c3=O)C[C@@H](C)N(C(=O)c3ccc(Cl)c(Cl)c3)C4)cc2)n1` [Compound C247, (6R)-7-(3,4-dichlorobenzoyl)-6-methyl-3-[4-(4-methyl-1,3-thiazol-2-yl)phenyl]-2-[(propan-2-yl)amino]-5,6,7,8-tetrahydropyrido[3,4-d]pyrimidin-4(3H)-one], for which the EC50 in data set [1] (setting [3]) came out at 0.12 µM. Further, in data set [2] (setting [4]), the CC50 at 3 days was over 50 µM.
Consider `CNC(=O)c1ccc(-n2c(N[C@@H](C)c3ccc(F)cc3)nc3c(c2=O)C[C@@H](C)N(C(=O)c2ccc(Cl)c(Cl)c2)C3)cc1` [Compound C380], for which the EC50 in data set [1] (setting [5]) was found to be 0.1 µM. The half-maximal cytotoxic concentration (CC50) at 3 days in data set [2] (setting [6]) amounted to 15.7 µM.
Take `CNC1CCN(c2ccc(-n3c(NC(C)C)nc4c(c3=O)CCN(C(=O)c3ccc(Cl)c(Cl)c3)C4)cc2)C1` (stereo not drawn) [Compound C180, 7-(3,4-dichlorobenzoyl)-3-{4-[3-(methylamino)pyrrolidin-1-yl]phenyl}-2-[(propan-2-yl)amino]-5,6,7,8-tetrahydropyrido[3,4-d]pyrimidin-4(3H)-one]: in data set [1] (setting [3]), the EC50 was found to be 0.72 µM. In data set [2] (setting [4]), this compound gave a 50% cytotoxic concentration (CC50) at 3 days of 5.6 µM.
Taken in the same sequence, the figures for `COC(=O)c1ccn(-c2ccc(-n3c(NC(C)C)nc4c(c3=O)C[C@@H](C)N(C(=O)c3ccc(Cl)c(Cl)c3)C4)cc2)n1` [Compound C267, methyl 1-{4-[(6R)-7-(3,4-dichlorobenzoyl)-6-methyl-4-oxo-2-[(propan-2-yl)amino]-5,6,7,8-tetrahydropyrido[3,4-d]pyrimidin-3(4H)-yl]phenyl}-1H-pyrazole-3-carboxylate] were 0.21 µM and over 50 µM.
Taken in the same sequence, the figures for `CNC(=O)c1ccc(-n2c(NC(C)(C)C)nc3c(c2=O)C[C@@H](C)N(C(=O)c2ccc(Cl)c(Cl)c2)C3)cc1` [Compound C269, 4-[(6R)-2-(tert-butylamino)-7-(3,4-dichlorobenzoyl)-6-methyl-4-oxo-5,6,7,8-tetrahydropyrido[3,4-d]pyrimidin-3(4H)-yl]-N-methylbenzamide] were 0.05 µM and over 50 µM.
Taken in the same sequence, the figures for `Cc1c(C(=O)N2CCc3c(nc(NC(C)C)n(-c4ccc(S(C)(=O)=O)cc4)c3=O)C2)[nH]c2ccccc12` [Compound C147, 3-[4-(methanesulfonyl)phenyl]-7-(3-methyl-1H-indole-2-carbonyl)-2-[(propan-2-yl)amino]-5,6,7,8-tetrahydropyrido[3,4-d]pyrimidin-4(3H)-one] were 1.88 µM and over 50 µM.
Consider `COc1ccc(CN(C)c2nc3c(c(=O)[nH]2)CCN(C(=O)c2ccc(Cl)c(Cl)c2)C3)cc1` [Compound C31, 7-(3,4-dichlorobenzoyl)-2-{[(4-methoxyphenyl)methyl](methyl)amino}-5,6,7,8-tetrahydropyrido[3,4-d]pyrimidin-4(3H)-one], for which, in data set [1] (setting [3]), the EC50 was found to be 2.63 µM. The CC50 at 3 days in data set [2] (setting [4]) is over 50 µM.
Turning to `CNC(=O)c1ccc(-n2c(NC(C)C)nc3c(c2=O)C[C@@H](C)N(C(=O)c2ccc(Cl)c(C(F)(F)F)c2)C3)cc1Cl` [Compound C642], the EC50 in data set [1] (setting [5]) came to 0.04 µM. Further, the 50% cytotoxic concentration (CC50) at 3 days in data set [2] (setting [6]) is over 50 µM.
`CNC(=O)c1ccc(-n2c(NCc3ncn(-c4ccccc4)n3)nc3c(c2=O)C[C@@H](C)N(C(=O)c2ccc(Cl)c(Cl)c2)C3)cc1` [Compound C556]: the EC50 in data set [1] (setting [5]) is 0.57 µM. Further, the 50% cytotoxic concentration (CC50) at 3 days in data set [2] (setting [6]) is 25.6 µM.
For the compound `Cc1noc(C)c1-c1ccc(-n2c(NC(C)C)nc3c(c2=O)C[C@@H](C)N(C(=O)c2ccc(Cl)c(Cl)c2)C3)cc1` [Compound C211, (6R)-7-(3,4-dichlorobenzoyl)-3-[4-(3,5-dimethyl-1,2-oxazol-4-yl)phenyl]-6-methyl-2-[(propan-2-yl)amino]-5,6,7,8-tetrahydropyrido[3,4-d]pyrimidin-4(3H)-one], the EC50 in data set [1] (setting [3]) was found to be 0.15 µM. This compound also registered a CC50 at 3 days in data set [2] (setting [4]) of over 50 µM.
With `COc1ccccc1-n1c(NCc2nccs2)nc2c(c1=O)CCN(C(=O)c1ccc(Cl)c(Cl)c1)C2` [Compound C13, 7-(3,4-dichlorobenzoyl)-3-(2-methoxyphenyl)-2-{[(1,3-thiazol-2-yl)methyl]amino}-5,6,7,8-tetrahydropyrido[3,4-d]pyrimidin-4(3H)-one], in data set [1] (setting [3]), the 50% effective concentration (EC50) stood at 8.75 µM. In data set [2] (4-days incubation (values marked with *)), this compound gave a CC50 at 4 days of 38.9 µM.
For `CNC(=O)c1ccc(-n2c(N[C@@H](C)c3ccc(F)c(F)c3)nc3c(c2=O)C[C@@H](C)N(C(=O)c2ccc(Cl)c(Cl)c2)C3)cc1` (single isomer, unassigned) [Compound C417b], the EC50 in data set [1] (setting [5]) came to 0.06 µM. The cytotoxic concentration (CC50) at 3 days in data set [2] (setting [6]) came to 7.3 µM.
Turning to `CC(C)Nc1nc2c(c(=O)n1-c1ccc(N3CCOCC3)cc1)C[C@@H](C)N(C(=O)c1ccc(Cl)c(Cl)c1)C2` [Compound C218, (6R)-7-(3,4-dichlorobenzoyl)-6-methyl-3-[4-(morpholin-4-yl)phenyl]-2-[(propan-2-yl)amino]-5,6,7,8-tetrahydropyrido[3,4-d]pyrimidin-4(3H)-one], the EC50 in data set [1] (setting [3]) turned out to be 0.16 µM. This compound came in with a cytotoxic concentration (CC50) at 3 days in data set [2] (setting [4]) of over 50 µM.
Consider `CNC(=O)c1ccc(-n2c(NCc3nnc(C(C)C)[nH]3)nc3c(c2=O)C[C@@H](C)N(C(=O)c2ccc(Cl)c(Cl)c2)C3)cc1` [Compound C545], for which the EC50 in data set [1] (setting [5]) was over 25 µM. Also, in data set [2] (setting [6]), the 50% cytotoxic concentration (CC50) at 3 days was over 50 µM.
Taken in the same sequence, the figures for `CNC(=O)c1ccc(-n2c(N(C)Cc3ccc4cnccc4c3)nc3c(c2=O)C[C@@H](C)N(C(=O)c2ccc(Cl)c(Cl)c2)C3)cc1` [Compound C544] were 0.6 µM and 26.7 µM.
Taken in the same sequence, the figures for `CNC(=O)c1ccc(-n2c(NC(C)C)nc3c(c2=O)C[C@@H](C)N(C(=O)c2cc4cc(Br)ccc4s2)C3)cc1` [Compound C583] were 0.21 µM and over 50 µM.
